Data from PubChem BioAssay (NCI).
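Five concentrations, 48 hours, 96-well plates. The concentration for 50% growth inhibition is given as GI50. TGI denotes the concentration required for complete inhibition of growth.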

Key:
Assay in all cases: DTP human tumour cell line panel, 48 h
[1] = test system: 786-0 renal
[2] = test system: A498 renal
[3] = test system: A549 NSCLC
[4] = test system: ACHN renal
[5] = test system: BT-549 breast
[6] = test system: CAKI-1 renal
[7] = test system: CCRF-CEM leukemia
[8] = test system: COLO 205 colon
[9] = test system: DU-145 prostate
[10] = test system: EKVX NSCLC
[11] = test system: HCC-2998 colon
[12] = test system: HCT-116 colon
[13] = test system: HCT-15 colon
[14] = test system: HL-60(TB) leukemia
[15] = test system: HOP-62 NSCLC
[16] = test system: HOP-92 NSCLC
[17] = test system: HS 578T breast
[18] = test system: HT29 colon
[19] = test system: IGROV1 ovarian
[20] = test system: K-562 leukemia
[21] = test system: KM12 colon
[22] = test system: LOX IMVI melanoma
[23] = test system: M14 melanoma
[24] = test system: MALME-3M melanoma
[25] = test system: MCF7 breast
[26] = test system: MDA-MB-231 breast
[27] = test system: MDA-MB-435
[28] = test system: MDA-MB-468 breast
[29] = test system: MOLT-4 leukemia
[30] = test system: NCI-H226 lung
[31] = test system: NCI-H23 lung
[32] = test system: NCI-H460 lung
[33] = test system: NCI-H522 lung
[34] = test system: NCI/ADR-RES ovarian
[35] = test system: OVCAR-3 ovarian
[36] = test system: OVCAR-4 ovarian
[37] = test system: OVCAR-5 ovarian
[38] = test system: OVCAR-8 ovarian
[39] = test system: PC-3 prostate
[40] = test system: RPMI-8226 leukemia
[41] = test system: RXF 393 renal
[42] = test system: SF-268 CNS
[43] = test system: SF-295 CNS
[44] = test system: SF-539 CNS
[45] = test system: SK-MEL-2 melanoma
[46] = test system: SK-MEL-28 melanoma
[47] = test system: SK-MEL-5 melanoma
[48] = test system: SK-OV-3 ovarian
[49] = test system: SN12C renal
[50] = test system: SNB-19 CNS
[51] = test system: SNB-75 CNS
[52] = test system: SR leukemia
[53] = test system: SW-620 colon
[54] = test system: T-47D breast
[55] = test system: TK-10 renal
[56] = test system: U251 CNS
[57] = test system: UACC-257 melanoma
[58] = test system: UACC-62 melanoma
[59] = test system: UO-31 renal

SMILES: CN1CCN(c2ccc(C(=O)/C=C/c3ccc(OC(F)F)cc3)cc2)CC1
- GI50 [1]: 15.3 µM
- TGI [1]: 39.6 µM
- GI50 [2]: 14.2 µM
- TGI [2]: 27.8 µM
- GI50 [3]: 11.7 µM
- TGI [3]: 25.8 µM
- GI50 [4]: 14.8 µM
- TGI [4]: 27.9 µM
- GI50 [5]: 13 µM
- TGI [5]: 29 µM
- GI50 [6]: 13.9 µM
- TGI [6]: 27.2 µM
- GI50 [7]: 4.3 µM
- TGI [7]: 37.7 µM
- GI50 [8]: 14.2 µM
- TGI [8]: 30.9 µM
- GI50 [9]: 13.6 µM
- TGI [9]: 26.7 µM
- GI50 [10]: 13.1 µM
- TGI [10]: 25.8 µM
- GI50 [11]: 3.76 µM
- TGI [11]: 14 µM
- GI50 [12]: 2.87 µM
- TGI [12]: > 100 µM
- GI50 [13]: 6.88 µM
- TGI [13]: 19.7 µM
- GI50 [14]: 4.7 µM
- TGI [14]: 33.4 µM
- GI50 [15]: 15.4 µM
- TGI [15]: 30.4 µM
- GI50 [16]: 6.21 µM
- TGI [16]: 20.9 µM
- GI50 [17]: 14.9 µM
- TGI [17]: 46.2 µM
- GI50 [18]: 3.41 µM
- TGI [18]: 15.3 µM
- GI50 [19]: 12.1 µM
- TGI [19]: 25.2 µM
- GI50 [20]: 2.8 µM
- TGI [20]: > 100 µM
- GI50 [21]: 5.2 µM
- TGI [21]: 22.1 µM
- GI50 [22]: 3.53 µM
- TGI [22]: 13 µM
- GI50 [23]: 12.3 µM
- TGI [23]: 38.6 µM
- GI50 [24]: 13.1 µM
- TGI [24]: 25.8 µM
- GI50 [25]: 2.74 µM
- TGI [25]: 11 µM
- GI50 [26]: 13.5 µM
- TGI [26]: 26.3 µM
- GI50 [27]: 3 µM
- TGI [27]: 10.7 µM
- GI50 [28]: 3.52 µM
- TGI [28]: 14.5 µM
- GI50 [29]: 11.6 µM
- TGI [29]: 54.9 µM
- GI50 [30]: 10.8 µM
- TGI [30]: 24.3 µM
- GI50 [31]: 11.8 µM
- TGI [31]: 24.3 µM
- GI50 [32]: 14.4 µM
- TGI [32]: 30.1 µM
- GI50 [33]: 15.4 µM
- TGI [33]: 32.3 µM
- GI50 [34]: 13.9 µM
- TGI [34]: 27.3 µM
- GI50 [35]: 12.1 µM
- TGI [35]: 25.5 µM
- GI50 [36]: 14.4 µM
- TGI [36]: 33.8 µM
- GI50 [37]: 14.8 µM
- TGI [37]: 28.1 µM
- GI50 [38]: 14.2 µM
- TGI [38]: 27.8 µM
- GI50 [39]: 10.3 µM
- TGI [39]: 26.5 µM
- GI50 [40]: 2.6 µM
- TGI [40]: 9.85 µM
- GI50 [41]: 4.34 µM
- TGI [41]: 17.4 µM
- GI50 [42]: 18 µM
- TGI [42]: 41.3 µM
- GI50 [43]: 12.3 µM
- TGI [43]: 24.7 µM
- GI50 [44]: 12.3 µM
- TGI [44]: 24.7 µM
- GI50 [45]: 16.6 µM
- TGI [45]: 31.9 µM
- GI50 [46]: 15.3 µM
- TGI [46]: 28.6 µM
- GI50 [47]: 8.94 µM
- TGI [47]: 21.1 µM
- GI50 [48]: 13.9 µM
- TGI [48]: 27.6 µM
- GI50 [49]: 13.5 µM
- TGI [49]: 26.3 µM
- GI50 [50]: 14.7 µM
- TGI [50]: 27.9 µM
- GI50 [51]: 4.85 µM
- TGI [51]: 20.3 µM
- GI50 [52]: 1.96 µM
- TGI [52]: > 100 µM
- GI50 [53]: 4.98 µM
- TGI [53]: 18.5 µM
- GI50 [54]: 15.5 µM
- TGI [54]: 38.4 µM
- GI50 [55]: 14.8 µM
- TGI [55]: 29.6 µM
- GI50 [56]: 9.79 µM
- TGI [56]: 27.5 µM
- GI50 [57]: 13.8 µM
- TGI [57]: 27.2 µM
- GI50 [58]: 14 µM
- TGI [58]: 27 µM
- GI50 [59]: 11 µM
- TGI [59]: 23 µM
